Where “and” joins values, the source holds several entries; their conditions need not be identical. Equal entries are not always repeated.
Legend:
[1] = Airway patency in a capillary surfactometer; conditions: 37 C, graded concentrations of albumin
Procedure: This is evaluated in a capillary surfactometer at 37 C at a concentration of 1 mg/ml of the surfactant in the presence of 0.5 mg/ml of albumin.
FIG. 2 compares the airway patency of DPPC:Eugenol 5:3 (present invention) at a concentration of 1 mg/ml with that of DPPC:clove oil 5:3 1 mg/ml in the absence and presence of 0.5 mg/ml of albumin in a capillary surfactometer at 37 C.

[2] = Atomic force microscopy of surfactant films in presence of albumin; format: physicochemical; conditions: in the presence of albumin
From the text: The invented surfactant of DPPC: eugenol 5:3 forms closely packed structures having nanodomains in the presence of albumin. The DPPC: eugenol surfactant in the absence and presence of albumin was compared with that of DPPC alone in the absence and presence of albumin, using atomic force microscopy (AFM). AFM images of DPPC in the presence of albumin and DPPC: eugenol 5:3 in the presence of albumin are depicted in FIGS. 11 and 13 respectively and the roughness of the structures are depicted in FIGS. 12 and 14. […] The surface roughness of DPPC in the presence of albumin is depicted in FIG. 12. It confirms large aggregates with roughness of 47.47 nm. On the other hand, in the case of DPPC: eugenol in the presence of albumin, the surface roughness is only 8.9 nm as depicted in FIG. 14. The formation of nanodomains of 80-90 nm with surface roughness of 8.9 nm allows a closely packed organization which accounts for the improved surface activity of the surfactant in the presence of albumin.

[3] = Laurdan fluorescence ratio (lamellar/non-lamellar phase state); format: physicochemical; conditions: for Ratio of Laurdan fluorescence 360/390: 360 and 390 nm; for Ratio of Laurdan fluorescence 360/490: 360 and 490 nm
From the text: (§1) Laurdan (6-dodecanoyl-2-dimethylaminonaphthalene) is a fluorescent membrane probe that has the advantage of displaying spectral sensitivity to the phospholipids phase state.
as §1

[4] = Differential scanning calorimetry: energy required by liposomes to reach the interface; format: physicochemical; conditions: liposomes 1 mg/ml
Procedure: Differential scanning calorimetry (DSC) was also used to study the interaction of bioactive compounds with model lipid bilayers such as DPPC. The experiments were performed at temperature ranging from 35° C. to 115° C. The rate of heating was 3° C./min and the system was allowed to cool to about 35° C. before the next experiment. The samples studied in the order of DSC results were,
Differential scanning calorimetry (DSC) was used to study the interaction of bioactive compounds with model lipid bilayers such as DPPC. The experiments were performed at temperature ranging from 35° C. to 115° C. The rate of heating was 3° C./min and the system was allowed to cool to about 35° C. before the next experiment. […] The lower the energy required by the nanovesicles, better is the rate of adsorption. […] On addition of HCl (as an acid inhibitor), there was an increase in the energy (1743 J/g) of the DPPC liposomes which affected the adsorption (59.89±2.22mN/m) of these acid-treated liposomes. The energy barrier prevented the rapid entry of these liposomes at the interface thereby affecting adsorption.

[5] = Surfactant adsorption to air-liquid interface in a langmuir trough; format: physicochemical
Procedure: Salbutamol or dexamethasone were added in a ratio of 1 part of surfactant to 0.1 parts of drug while gentamycin was added in a ratio of 1 part of surfactant to 0.2 parts of drug by weight.

Row | Compound | Airway patency in presence of graded amounts of albumin [1] | Domain size (AFM) [2] | Surface roughness (AFM) [2] | Ratio of Laurdan fluorescence 360/390 ([3]; in the presence of albumin) | Ratio of Laurdan fluorescence 360/390 ([3]; no albumin) | Ratio of Laurdan fluorescence 360/490 ([3]; in the presence of albumin) | Ratio of Laurdan fluorescence 360/490 ([3]; no albumin) | Energy required for the liposomes to reach the interface (DSC) ([4]; HCl 3.1×10^−1 moles/dm^3) | Energy required for the liposomes to reach the interface (DSC) ([4]; acid-untreated) | Adsorption (rate of adsorption, surface tension) ([5]; acid-treated, HCl 3.1×10^−1 moles/dm^3) | Adsorption (rate of adsorption, surface tension) ([5]; acid-untreated, liposomes 1 mg/ml)
1 | CCCCCCCCCCCCCCCC(=O)OC[C@H](COP(=O)([O-])OCC[N+](C)(C)C)OC(=O)CCCCCCCCCCCCCCC [DPPC, dipalmitoylphosphatidylcholine] | 0% | 540-550 nm | 47.47 nm | 1.98 and 1.99 | 2.6 and 2.615 | 1.21 and 1.215 | 2.41 | 1743 J/g | 1325 J/g | 59.89±2.22 mN/m | 44.66±1.71 mN/m
2 | C=CCc1ccc(O)c(OC)c1 [eugenol] | 0% |  |  |  |  |  |  |  |  |  | 
